Laboratory results as given in PMC6844396, “Design, synthesis and biological evaluation of novel 1H-1,2,4-triazole, benzothiazole and indazole-based derivatives as potent FGFR1 inhibitors viafragment-based virtual screening” (Journal of Enzyme Inhibition and Medicinal Chemistry, 2019).

How the values were obtained:
FGFR1 = FGFR1 (Homo sapiens, UniProt P11362); assay: ELISA kinase assay, FGFR1; assay type: biochemical; settings: for IC50: ELISA, average values from two separate experiments
Procedure: Elisa kinase assay. The effects of the indicated compounds on the activities of receptor tyrosine kinases were determined using enzyme-linked immunosorbent assays (ELISAs) with purified recombinant proteins. Briefly, 20 μg/mL poly (Glu,Tyr)4:1 (Sigma, St Louis, MO, USA) was pre-coated in 96-well plates as a substrate. A 50 μL aliquot of 10 μmol/L ATP solution diluted in kinase reaction buffer (50 mmol/L HEPES [pH 7.4], 50 mmol/L MgCl2, 0.5 mmol/L MnCl2, 0.2 mmol/L Na3VO4, and 1 mmol/L DTT) was added to each well; 1 μL of different compounds with indicated concentration diluted in 1% DMSO (v/v) (Sigma, St Louis, MO, USA) were then added to each reaction well. DMSO (1%, v/v) was used as the negative control. The kinase reaction was initiated by the addition of purified tyrosine kinase proteins (FGFR1, FGFR2, FGFR3, FGFR4, ALK, Bcr-Abl, EPH-A2, Flt-1, RET, c-Src, IGF1R, c-Met, EGFR, ErbB2) diluted in 49 μL of kinase reaction buffer solution. After incubation for 60 min at 37 °C, the plate was washed three times with phosphate-buffered saline (PBS) containing 0.1% Tween 20 (T-PBS). Anti-phosphotyrosine (PY99) antibody (100 μL; 1:500, diluted in 5 mg/mL BSA T-PBS) was then added. After a 30 min incubation at 37 °C, the plate was washed three times, and 100 μL horseradish peroxidase-conjugated goat anti-mouse IgG (1:2000, diluted in 5 mg/mL BSA T-PBS) was added. The plate was then incubated at 37 °C for 30 min and washed 3 times. A 100 μL aliquot of a solution containing 0.03% H2O2 and 2 mg/mL o-phenylenediamine in 0.1 mol/l citrate buffer (pH 5.5) was added. The reaction was terminated by the addition of 50 μL of 2 mol/l H2SO4 as the colour changed, and the plate was analysed using a multi-well spectrophotometer (SpectraMAX 190, Molecular Devices, Sunnyvale, CA, USA) at 490 nm. The inhibition rate (%) was calculated using the following equation: [1-(A490/A490 control)] × 100%. The IC50 values were calculated from the inhibition curves in two separate experiments.

SNU-16 cell = assay: Cell proliferation assay (CCK-8 or MTT), SNU-16; assay type: cell-based, Human; settings: Homo sapiens, SNU-16 is FGFR2-amplified cell type, 72 h
Procedure: Human gastric cancer cell line SNU-16 was purchased from American Type Culture Collection (ATCC, Manssas, VA, USA). All the cell lines were routinely maintained in complete medium according to the suppliers’ recommendations.
Cells were seeded in 96-well tissue culture plates. On the day when seeding, the cells were exposed to various concentrations of compounds and further cultured for 72 h at 37 °C. Finally, cell proliferation was determined using Cell Counting Kit (CCK-8) or the thiazolyl blue tetrazolium bromide (MTT, from Sigma-Aldrich, St. Louis, MO, USA) assay. The IC50 values were calculated by concentration–response curve fitting using a SoftMax pro-based four-parameter method.

FGFR2 = FGFR2 (Homo sapiens, UniProt P21802); assay: ELISA kinase assay, FGFR2; assay type: biochemical; settings: kinase selectivity panel
Chain of FGFR2 (P21802 22-821): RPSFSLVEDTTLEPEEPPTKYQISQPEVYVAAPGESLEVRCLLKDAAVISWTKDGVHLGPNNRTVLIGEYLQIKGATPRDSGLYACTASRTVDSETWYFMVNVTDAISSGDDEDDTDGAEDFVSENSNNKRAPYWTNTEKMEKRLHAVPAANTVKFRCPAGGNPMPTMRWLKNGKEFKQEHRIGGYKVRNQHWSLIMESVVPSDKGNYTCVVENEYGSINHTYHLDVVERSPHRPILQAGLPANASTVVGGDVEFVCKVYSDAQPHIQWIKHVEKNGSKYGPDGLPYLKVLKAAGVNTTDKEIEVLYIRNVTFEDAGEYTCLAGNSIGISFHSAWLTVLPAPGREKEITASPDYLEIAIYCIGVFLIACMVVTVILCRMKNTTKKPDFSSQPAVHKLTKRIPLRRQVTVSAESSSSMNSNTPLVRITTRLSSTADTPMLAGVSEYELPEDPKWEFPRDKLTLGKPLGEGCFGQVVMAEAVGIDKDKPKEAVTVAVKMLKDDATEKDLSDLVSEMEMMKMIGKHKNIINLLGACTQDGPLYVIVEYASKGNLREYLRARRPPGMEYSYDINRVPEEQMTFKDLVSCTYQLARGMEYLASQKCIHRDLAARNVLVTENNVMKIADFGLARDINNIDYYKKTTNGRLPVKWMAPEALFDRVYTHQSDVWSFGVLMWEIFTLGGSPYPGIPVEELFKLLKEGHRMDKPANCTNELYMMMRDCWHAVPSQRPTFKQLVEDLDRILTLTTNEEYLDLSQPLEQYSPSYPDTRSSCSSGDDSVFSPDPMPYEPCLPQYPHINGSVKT
Procedure: DMSO (1%, v/v) was used as the negative control. […] Anti-phosphotyrosine (PY99) antibody (100 μL; 1:500, diluted in 5 mg/mL BSA T-PBS) was then added. […] The IC50 values were calculated from the inhibition curves in two separate experiments.

FGFR3 = FGFR3 (Homo sapiens, UniProt P22607); assay: ELISA kinase assay, FGFR3; assay type: biochemical; settings: kinase selectivity panel
Chain of FGFR3 (P22607 23-806): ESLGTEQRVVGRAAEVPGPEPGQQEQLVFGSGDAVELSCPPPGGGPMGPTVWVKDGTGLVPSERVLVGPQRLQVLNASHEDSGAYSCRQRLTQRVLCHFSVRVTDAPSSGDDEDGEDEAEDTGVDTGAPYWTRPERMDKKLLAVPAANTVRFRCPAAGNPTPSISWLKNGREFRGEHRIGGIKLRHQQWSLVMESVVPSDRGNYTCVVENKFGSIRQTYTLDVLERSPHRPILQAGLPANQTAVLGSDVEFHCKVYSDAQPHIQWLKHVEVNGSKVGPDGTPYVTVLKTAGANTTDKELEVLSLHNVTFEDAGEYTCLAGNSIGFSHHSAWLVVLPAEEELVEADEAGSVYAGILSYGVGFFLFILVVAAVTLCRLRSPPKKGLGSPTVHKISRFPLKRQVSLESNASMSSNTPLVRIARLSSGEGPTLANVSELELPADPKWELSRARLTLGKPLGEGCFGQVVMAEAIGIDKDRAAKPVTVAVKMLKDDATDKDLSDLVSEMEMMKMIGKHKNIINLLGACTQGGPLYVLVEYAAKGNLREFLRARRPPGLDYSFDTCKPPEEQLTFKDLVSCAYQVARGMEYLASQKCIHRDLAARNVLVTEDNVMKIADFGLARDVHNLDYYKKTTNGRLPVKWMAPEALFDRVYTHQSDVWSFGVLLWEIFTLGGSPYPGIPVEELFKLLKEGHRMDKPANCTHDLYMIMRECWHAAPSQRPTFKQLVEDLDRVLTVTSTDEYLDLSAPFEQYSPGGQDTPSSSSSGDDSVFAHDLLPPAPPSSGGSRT
Procedure: (§1) The kinase profiling of 9 u was conducted using Elisa kinase assay and the Eurofins Kinase Profiler Selectivity Testing Service.
(§2) Elisa kinase assay. The effects of the indicated compounds on the activities of receptor tyrosine kinases were determined using enzyme-linked immunosorbent assays (ELISAs) with purified recombinant proteins. Briefly, 20 μg/mL poly (Glu,Tyr)4:1 (Sigma, St Louis, MO, USA) was pre-coated in 96-well plates as a substrate. A 50 μL aliquot of 10 μmol/L ATP solution diluted in kinase reaction buffer (50 mmol/L HEPES [pH 7.4], 50 mmol/L MgCl2, 0.5 mmol/L MnCl2, 0.2 mmol/L Na3VO4, and 1 mmol/L DTT) was added to each well; 1 μL of different compounds with indicated concentration diluted in 1% DMSO (v/v) (Sigma, St Louis, MO, USA) were then added to each reaction well. DMSO (1%, v/v) was used as the negative control. The kinase reaction was initiated by the addition of purified tyrosine kinase proteins (FGFR1, FGFR2, FGFR3, FGFR4, ALK, Bcr-Abl, EPH-A2, Flt-1, RET, c-Src, IGF1R, c-Met, EGFR, ErbB2) diluted in 49 μL of kinase reaction buffer solution. […] The reaction was terminated by the addition of 50 μL of 2 mol/l H2SO4 as the colour changed, and the plate was analysed using a multi-well spectrophotometer (SpectraMAX 190, Molecular Devices, Sunnyvale, CA, USA) at 490 nm. […] The IC50 values were calculated from the inhibition curves in two separate experiments.

FGFR4 = FGFR4 (Homo sapiens, UniProt P22455); assay: ELISA kinase assay, FGFR4; assay type: biochemical; settings: kinase selectivity panel
Procedure: as §1, §2

ALK = ALK (Homo sapiens, UniProt Q9UM73); assay: ELISA kinase assay, ALK; assay type: biochemical; settings: kinase selectivity panel
Procedure: as §1, §2

Bcr-Abl = Bcr-Abl (Homo sapiens, UniProt P00519); assay: ELISA kinase assay, Bcr-Abl; assay type: biochemical; settings: kinase selectivity panel
Procedure: as §1, §2

EPH-A2 = EPH-A2 (Homo sapiens, UniProt P29317); assay: ELISA kinase assay, EPH-A2; assay type: biochemical; settings: kinase selectivity panel
Chain of EPH-A2 (P29317 24-976, species assumed): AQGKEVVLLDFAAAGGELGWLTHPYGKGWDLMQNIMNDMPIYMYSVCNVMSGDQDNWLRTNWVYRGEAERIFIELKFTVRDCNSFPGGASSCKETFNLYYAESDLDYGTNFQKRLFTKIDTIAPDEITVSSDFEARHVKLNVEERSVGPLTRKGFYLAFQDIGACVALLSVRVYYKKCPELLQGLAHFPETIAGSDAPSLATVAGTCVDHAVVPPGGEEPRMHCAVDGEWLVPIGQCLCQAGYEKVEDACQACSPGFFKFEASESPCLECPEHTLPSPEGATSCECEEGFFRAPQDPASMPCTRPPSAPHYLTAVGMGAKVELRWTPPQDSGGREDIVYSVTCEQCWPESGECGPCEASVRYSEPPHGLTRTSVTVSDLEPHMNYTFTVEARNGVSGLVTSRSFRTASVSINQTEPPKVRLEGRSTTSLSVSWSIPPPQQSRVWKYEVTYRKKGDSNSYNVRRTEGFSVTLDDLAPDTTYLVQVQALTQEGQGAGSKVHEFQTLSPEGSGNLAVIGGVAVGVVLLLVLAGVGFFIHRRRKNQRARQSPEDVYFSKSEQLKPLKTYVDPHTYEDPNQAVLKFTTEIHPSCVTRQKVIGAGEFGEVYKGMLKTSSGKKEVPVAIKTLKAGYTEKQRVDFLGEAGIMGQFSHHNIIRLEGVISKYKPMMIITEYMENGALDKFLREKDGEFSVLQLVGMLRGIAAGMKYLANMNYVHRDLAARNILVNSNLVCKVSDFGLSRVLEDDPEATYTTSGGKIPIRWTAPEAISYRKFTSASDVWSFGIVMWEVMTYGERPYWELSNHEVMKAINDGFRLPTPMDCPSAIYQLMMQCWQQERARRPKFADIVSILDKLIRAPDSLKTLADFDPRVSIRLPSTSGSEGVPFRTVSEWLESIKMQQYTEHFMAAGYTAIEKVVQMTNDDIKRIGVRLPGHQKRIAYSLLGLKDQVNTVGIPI
Procedure: as §1, §2

Flt-1 = Flt-1 (Homo sapiens, UniProt P17948); assay: ELISA kinase assay, Flt-1; assay type: biochemical; settings: kinase selectivity panel
Procedure: as §1, §2

RET = RET (Homo sapiens, UniProt P07949); assay: ELISA kinase assay, RET; assay type: biochemical; settings: kinase selectivity panel
Chain of RET (P07949 29-1114, species assumed): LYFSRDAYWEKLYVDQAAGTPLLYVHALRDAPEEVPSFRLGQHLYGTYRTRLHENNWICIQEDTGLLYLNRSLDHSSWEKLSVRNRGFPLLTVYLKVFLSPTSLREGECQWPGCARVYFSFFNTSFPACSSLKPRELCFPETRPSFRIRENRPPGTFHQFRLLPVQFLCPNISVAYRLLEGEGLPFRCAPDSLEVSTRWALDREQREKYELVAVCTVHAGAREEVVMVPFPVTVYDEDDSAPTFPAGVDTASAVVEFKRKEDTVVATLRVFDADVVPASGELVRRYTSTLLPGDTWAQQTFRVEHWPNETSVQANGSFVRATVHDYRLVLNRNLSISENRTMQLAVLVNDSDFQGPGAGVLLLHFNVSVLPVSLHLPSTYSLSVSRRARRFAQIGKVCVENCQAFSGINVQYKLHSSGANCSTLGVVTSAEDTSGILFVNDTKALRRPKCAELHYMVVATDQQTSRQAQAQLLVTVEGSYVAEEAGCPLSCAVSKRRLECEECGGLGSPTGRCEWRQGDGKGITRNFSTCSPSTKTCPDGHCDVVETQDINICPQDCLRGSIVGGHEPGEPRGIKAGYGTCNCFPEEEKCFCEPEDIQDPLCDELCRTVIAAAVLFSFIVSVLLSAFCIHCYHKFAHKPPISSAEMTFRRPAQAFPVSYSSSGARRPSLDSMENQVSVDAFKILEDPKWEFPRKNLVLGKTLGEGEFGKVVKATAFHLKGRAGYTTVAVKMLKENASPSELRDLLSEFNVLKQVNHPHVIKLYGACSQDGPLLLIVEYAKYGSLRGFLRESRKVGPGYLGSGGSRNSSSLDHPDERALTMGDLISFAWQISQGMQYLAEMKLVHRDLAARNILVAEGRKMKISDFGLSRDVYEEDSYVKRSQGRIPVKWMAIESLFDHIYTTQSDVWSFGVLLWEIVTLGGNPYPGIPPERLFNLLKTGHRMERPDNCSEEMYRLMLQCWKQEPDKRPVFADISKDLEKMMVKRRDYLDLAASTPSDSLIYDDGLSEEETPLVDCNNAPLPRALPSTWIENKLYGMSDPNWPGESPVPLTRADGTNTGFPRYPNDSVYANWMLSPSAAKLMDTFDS
Procedure: as §1, §2

c-Src = c-Src (Homo sapiens, UniProt P12931); assay: ELISA kinase assay, c-Src; assay type: biochemical; settings: kinase selectivity panel
Chain of c-Src (P12931 whole entry, species assumed): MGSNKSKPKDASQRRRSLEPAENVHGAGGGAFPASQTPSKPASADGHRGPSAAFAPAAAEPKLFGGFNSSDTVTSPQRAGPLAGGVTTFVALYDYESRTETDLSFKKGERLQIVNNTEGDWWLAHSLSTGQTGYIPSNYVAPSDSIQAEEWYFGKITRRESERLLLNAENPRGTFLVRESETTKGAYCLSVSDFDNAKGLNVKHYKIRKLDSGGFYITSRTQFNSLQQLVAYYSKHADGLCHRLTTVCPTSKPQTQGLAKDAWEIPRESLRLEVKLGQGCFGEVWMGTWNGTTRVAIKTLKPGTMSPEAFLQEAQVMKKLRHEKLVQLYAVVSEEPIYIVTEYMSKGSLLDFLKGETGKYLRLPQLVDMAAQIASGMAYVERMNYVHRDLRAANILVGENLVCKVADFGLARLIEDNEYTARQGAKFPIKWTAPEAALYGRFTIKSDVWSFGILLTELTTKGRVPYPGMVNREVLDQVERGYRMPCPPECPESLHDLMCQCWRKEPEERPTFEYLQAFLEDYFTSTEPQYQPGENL
Procedure: as §1, §2

IGF1R = IGF1R (Homo sapiens, UniProt P08069); assay: ELISA kinase assay, IGF1R; assay type: biochemical; settings: kinase selectivity panel
Procedure: as §1, §2

c-Met = c-Met (Homo sapiens, UniProt P08581); assay: ELISA kinase assay, c-Met; assay type: biochemical; settings: kinase selectivity panel
Procedure: as §1, §2

EGFR = EGFR (Homo sapiens, UniProt P00533); assay: ELISA kinase assay, EGFR; assay type: biochemical; settings: kinase selectivity panel
Procedure: as §1, §2

ErbB2 = ErbB2 (Homo sapiens, UniProt P04626); assay: ELISA kinase assay, ErbB2; assay type: biochemical; settings: kinase selectivity panel
Procedure: as §1, §2

Chain of FGFR1 (P11362 22-822): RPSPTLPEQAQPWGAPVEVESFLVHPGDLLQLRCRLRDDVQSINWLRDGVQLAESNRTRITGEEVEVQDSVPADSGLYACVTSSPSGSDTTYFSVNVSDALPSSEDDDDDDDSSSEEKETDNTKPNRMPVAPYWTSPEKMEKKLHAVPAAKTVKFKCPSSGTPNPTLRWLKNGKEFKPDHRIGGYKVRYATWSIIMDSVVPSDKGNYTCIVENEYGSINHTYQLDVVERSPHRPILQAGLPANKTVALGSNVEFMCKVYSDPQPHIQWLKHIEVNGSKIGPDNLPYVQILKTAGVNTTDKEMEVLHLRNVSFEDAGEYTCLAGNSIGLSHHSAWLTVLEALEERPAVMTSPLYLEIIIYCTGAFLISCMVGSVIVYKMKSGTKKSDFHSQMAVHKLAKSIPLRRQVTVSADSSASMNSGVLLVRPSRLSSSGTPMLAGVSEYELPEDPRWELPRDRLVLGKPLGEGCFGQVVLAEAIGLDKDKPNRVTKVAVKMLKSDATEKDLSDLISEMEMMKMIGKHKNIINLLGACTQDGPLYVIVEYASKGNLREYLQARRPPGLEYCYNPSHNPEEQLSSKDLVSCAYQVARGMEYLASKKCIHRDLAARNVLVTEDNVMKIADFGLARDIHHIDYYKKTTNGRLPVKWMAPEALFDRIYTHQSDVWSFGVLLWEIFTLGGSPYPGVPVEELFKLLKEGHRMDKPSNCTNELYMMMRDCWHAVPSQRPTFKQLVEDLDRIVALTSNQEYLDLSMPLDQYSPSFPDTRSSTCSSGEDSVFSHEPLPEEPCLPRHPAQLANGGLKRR

COc1cc(F)cc(-c2ccc3c(NC(=O)c4ccc(N5CCC(N(C)C)CC5)cc4)n[nH]c3c2)c1 [9u, 4–(4-(dimethylamino)piperidin-1-yl)-N-(6–(3-fluoro-5-methoxyphenyl)-1H-indazol-3-yl)benzamide]
IC50 (FGFR1): 3.3 nM
enhancement of FGFR1 inhibitory activity (FGFR1; compared with 9o): 1.5 fold
IC50 (SNU-16 cell; Table 3): 468 nM
IC50 (FGFR2): 5.2 nM
IC50 (FGFR3): 12.2 nM
IC50 (FGFR4): > 1000 nM
IC50 (ALK): > 1000 nM
IC50 (Bcr-Abl): > 1000 nM
IC50 (EPH-A2): > 1000 nM
IC50 (Flt-1): > 100 nM
IC50 (RET): > 100 nM
IC50 (c-Src): > 100 nM
IC50 (IGF1R): > 1000 nM
IC50 (c-Met): > 1000 nM
IC50 (EGFR): > 1000 nM
IC50 (ErbB2): > 1000 nM
melting point: 223.8 to 227.4 °C

CCN1CCN(c2ccc(C(=O)Nc3n[nH]c4cc(-c5c(C)cccc5C)ccc34)cc2)CC1 [9q, N-(6–(2,6-dimethylphenyl)-1H-indazol-3-yl)-4–(4-ethylpiperazin-1-yl)benzamide]
IC50 (FGFR1): 41.7 nM
IC50 (SNU-16 cell; Table 2): 856 nM
melting point: 235.7 to 239.2 °C

COc1cc(F)cc(-c2ccc3c(NC(=O)c4cnc(N5CCN(C)CC5)cn4)n[nH]c3c2)c1 [9z, N-(6–(3-fluoro-5-methoxyphenyl)-1H-indazol-3-yl)-5–(4-methylpiperazin-1-yl)pyrazine-2-carboxamide]
IC50 (FGFR1): 4.6 nM
IC50 (SNU-16 cell; Table 3): 738 nM
melting point: 237.7 to 240.3 °C

CCN1CCN(c2ccc(C(=O)Nc3n[nH]c4cc(-c5cc(Cl)cc(Cl)c5)ccc34)cc2)CC1 [9k, N-(6–(3,5-dichlorophenyl)-1H-indazol-3-yl)-4–(4-ethylpiperazin-1-yl)benzamide]
IC50 (FGFR1): 67.2 nM
IC50 (SNU-16 cell; Table 2): 1200 nM
melting point: 226.4 to 228.7 °C

CCOc1cccc(-c2ccc3c(NC(=O)c4ccc(N5CCN(CC)CC5)cc4)n[nH]c3c2)c1 [9e, N-(6–(3-ethoxyphenyl)-1H-indazol-3-yl)-4–(4-ethylpiperazin-1-yl)benzamide]
IC50 (FGFR1): 13.2 nM
IC50 (SNU-16 cell; Table 2): 1790 nM
melting point: 223.6 to 226 °C

COc1cc(F)cc(-c2ccc3c(NC(=O)c4ccc(N5CCN(C)CC5)cc4)n[nH]c3c2)c1 [9y, N-(6–(3-fluoro-5-methoxyphenyl)-1H-indazol-3-yl)-4–(4-methylpiperazin-1-yl)benzamide]
IC50 (FGFR1): 10.2 nM
IC50 (SNU-16 cell; Table 3): 639 nM
melting point: 237.4 to 241.6 °C

CCN1CCN(c2ccc(C(=O)Nc3n[nH]c4cc(-c5ccn(C)n5)ccc34)cc2)CC1 [9t, 4–(4-ethylpiperazin-1-yl)-N-(6–(1-methyl-1H-pyrazol-3-yl)-1H-indazol-3-yl) benzamide]
IC50 (FGFR1): > 1000 nM
IC50 (SNU-16 cell; Table 2): > 5000 nM
melting point: 221.6 to 224.2 °C

COc1cccc(-c2ccc3c(NC(=O)c4ccc(N5C[C@@H](C)N[C@@H](C)C5)cc4)n[nH]c3c2)c1 [9b, 4-((3R,5S)-3,5-dimethylpiperazin-1-yl)-N-(6–(3-methoxyphenyl)-1H-indazol-3-yl)benzamide]
IC50 (FGFR1): 20.7 nM
IC50 (SNU-16 cell; Table 1): 1050 nM
melting point: 224.8 to 227.4 °C
